From US7850981B2, “Immuno-adjuvant PDT treatment of metastatic tumors” (QLT, Inc., priority 1999, dated 2010)
Marks after values point to notes of the source that are not given here.

Key:
[1] = test system: M1 (rhabdomyosarcoma); test: Reimplantation of M1 tumor on Day 20 into tumor-free mice treated with PDT (verteporfin 1.0 mg/kg i.v. + light) with or without DETOX B-SE; type: in vivo; settings: for Survival (tumour less than 1 cm long, not euthanized) / Tumor-take Rate: reimplanted Day 20
Description: The thirty mice in treatment group 7 were implanted at the same time as those reimplanted on Groups 1-6 to provide a control for the rate of tumor-take. Ten mice were implanted on each of three separate batches of 10 mice to match the days of reimplantation of 1-6.
High dose PDT gave approximately 60% fewer tumors (n=9), and this percentage was not changed by the addition of high dose immunoadjuvant (n=5). The lower dose of immunoadjuvant combined with high dose PDT gave more protection against rechallenge (20% take rate, n=6).

[2] = test system: M1 (rhabdomyosarcoma); test: M1 tumor response after PDT (verteporfin 1.0 mg/kg i.v. + light) with or without intratumoral DETOX B-SE; type: in vivo, mice
Experimental: DETOX™ B-SE (Stable Emulsion) (LOT # PD: 071899-575-114) is a 1.0% squalene oil-in-water emulsion containing 145 μg/mL cell wall skeleton (CWS) from Mycobacterium phlei and 25 μg/mL monophosphoryl lipid A (MPL) from Salmonella minnesota R595 [Corixa Inc.]. DETOX™ B-SE was prepared according to the manufacturer's recommendations. Two concentrations were prepared by diluting DETOX™ B-SE in sterile PBS: 1:10 (7.25 μg/mL CWS, 1.25 μg/mL MPL) or 1:2.5 (29.0 μg/mL CWS, 5.0 μg/mL MPL). Aliquots (50 μL) were drawn into a tuberculin syringe with a 27 gauge needle prior to intratumoral injection.
Mice used in the experiments described below were implanted intradermally with a suspension of 2×10^4 M1 (rhabdomyosarcoma) cells on the right flank. Approximately six to ten days after implantation, the site was shaved and tumor growth measured using vernier calipers. Only mice bearing tumors 4-6 mm in diameter were selected for use.
Mice treated with PDT or PDV received 1.0 mg/kg of Verteporfin for Injection (VFI) administered intravenously by tail vein injection. Immediately after injection, the mice were placed in a darkened row of an enclosed, ventilated animal rack (condo unit) for 30 minutes. After 30 minutes, each mouse was secured in a metal holder so that the tumor was centered in a 1.0 cm diameter exposure area. The tumor site was exposed to light from an argon pump dye laser for either 14 minutes, to deliver 75 J/cm^2, or 4 minutes and 40 seconds, to deliver 25 J/cm^2. The light doses selected were chosen to deliver either a high PDT dose (75 J/cm^2) or a low PDT dose (25 J/cm 2). The exposure time in seconds was determined by dividing the light dose (J/cm^2) by light Intensity (W/cm^2).
Immediately following illumination and while still immobilized in the metal holder, mice received a single intratumoral injection of 50 μL of the 1:10 dilution DETOX™ B-SE, designed to deliver the adjuvant to the center of the tumor mass. Mice in treatment Groups 2 and 5 received 50 μL of 1:2.5 dilution following PDT. Mice in treatment Groups 3 and 6 received PDT treatment, but not adjuvant. Mice in Group 7 remained untreated and were monitored for tumor growth only. Mice in treatment Groups 1 and 4 were treated with 50 μL of 1:10 dilution following PDT.

[3] = Optimal PDT (75 J/cm^2), n = 9, day 23 post-PDT
[4] = Optimal PDT (75 J/cm^2), n = 9, day 26 post-PDT
[5] = Optimal PDT (75 J/cm^2), n = 9, day 29 post-PDT
[6] = Optimal PDT (75 J/cm^2), n = 9, day 32 post-PDT
[7] = Optimal PDT (75 J/cm^2), n = 9, day 35 post-PDT
[8] = Optimal PDT (75 J/cm^2), n = 9, day 38 post-PDT
[9] = Optimal PDT (75 J/cm^2), n = 9, day 41 post-PDT
[10] = Optimal PDT (75 J/cm^2), n = 9, day 44 post-PDT
[11] = Optimal PDT (75 J/cm^2), n = 9, day 47 post-PDT
[12] = Optimal PDT (75 J/cm^2), n = 9, day 50 post-PDT
[13] = Sub-optimal PDT (25 J/cm^2), n = 7, day 23 post-PDT
[14] = Sub-optimal PDT (25 J/cm^2), n = 7, day 26 post-PDT
[15] = Sub-optimal PDT (25 J/cm^2), n = 7, day 29 post-PDT
[16] = Sub-optimal PDT (25 J/cm^2), n = 7, day 32 post-PDT
[17] = Sub-optimal PDT (25 J/cm^2), n = 7, day 35 post-PDT
[18] = Sub-optimal PDT (25 J/cm^2), n = 7, day 38 post-PDT
[19] = Sub-optimal PDT (25 J/cm^2), n = 7, day 41 post-PDT
[20] = Sub-optimal PDT (25 J/cm^2), n = 7, day 44 post-PDT
[21] = Sub-optimal PDT (25 J/cm^2), n = 7, day 47 post-PDT
[22] = Sub-optimal PDT (25 J/cm^2), n = 7, day 50 post-PDT
[23] = Optimal PDT (75 J/cm^2), day 3 post-PDT
[24] = Optimal PDT (75 J/cm^2), day 7 post-PDT
[25] = Optimal PDT (75 J/cm^2), day 10 post-PDT
[26] = Optimal PDT (75 J/cm^2), day 14 post-PDT
[27] = Optimal PDT (75 J/cm^2), day 17 post-PDT
[28] = Optimal PDT (75 J/cm^2), day 20 post-PDT
[29] = Sub-optimal PDT (25 J/cm^2), day 3 post-PDT
[30] = Sub-optimal PDT (25 J/cm^2), day 7 post-PDT
[31] = Sub-optimal PDT (25 J/cm^2), day 10 post-PDT
[32] = Sub-optimal PDT (25 J/cm^2), day 14 post-PDT
[33] = Sub-optimal PDT (25 J/cm^2), day 17 post-PDT
[34] = Sub-optimal PDT (25 J/cm^2), day 20 post-PDT

benzoporphyrin derivative monoacid ring A [verteporfin]
fewer tumors upon reimplantation than in untreated naïve mice ([1]; High dose PDT (75 J/cm^2), n=9): approximately 60%
protection against rechallenge relative to controls ([1]; Low dose PDT alone (25 J/cm^2), superior to low dose PDT combined with low-dose adjuvant): substantial protection
Survival (tumour less than 1 cm long, not euthanized) [1, 3]: 100%
Tumor-take Rate [1, 3]: 0%
Survival (tumour less than 1 cm long, not euthanized) [1, 4]: 100%
Tumor-take Rate [1, 4]: 44^d %
Survival (tumour less than 1 cm long, not euthanized) [1, 5]: 100%
Tumor-take Rate [1, 5]: 44^c %
Survival (tumour less than 1 cm long, not euthanized) [1, 6]: 100%
Tumor-take Rate [1, 6]: 44^c %
Survival (tumour less than 1 cm long, not euthanized) [1, 7]: 89^c %
Tumor-take Rate [1, 7]: 44^c %
Survival (tumour less than 1 cm long, not euthanized) [1, 8]: 89%
Tumor-take Rate [1, 8]: 44^c %
Survival (tumour less than 1 cm long, not euthanized) [1, 9]: 89%
Tumor-take Rate [1, 9]: 44^c %
Survival (tumour less than 1 cm long, not euthanized) [1, 10]: 78%
Tumor-take Rate [1, 10]: 44^c %
Survival (tumour less than 1 cm long, not euthanized) [1, 11]: 56%
Tumor-take Rate [1, 11]: 44^c %
Survival (tumour less than 1 cm long, not euthanized) [1, 12]: 56%
Tumor-take Rate [1, 12]: 44^c %
Survival (tumour less than 1 cm long, not euthanized) [1, 13]: 100%
Tumor-take Rate [1, 13]: 0%
Survival (tumour less than 1 cm long, not euthanized) [1, 14]: 100%
Tumor-take Rate [1, 14]: 43%
Survival (tumour less than 1 cm long, not euthanized) [1, 15]: 100%
Tumor-take Rate [1, 15]: 43%
Survival (tumour less than 1 cm long, not euthanized) [1, 16]: 100%
Tumor-take Rate [1, 16]: 43%
Survival (tumour less than 1 cm long, not euthanized) [1, 17]: 100%
Tumor-take Rate [1, 17]: 43%
Survival (tumour less than 1 cm long, not euthanized) [1, 18]: 100%
Tumor-take Rate [1, 18]: 43%
Survival (tumour less than 1 cm long, not euthanized) [1, 19]: 100%
Tumor-take Rate [1, 19]: 29%
Survival (tumour less than 1 cm long, not euthanized) [1, 20]: 86%
Tumor-take Rate [1, 20]: 29%
Survival (tumour less than 1 cm long, not euthanized) [1, 21]: 86%
Tumor-take Rate [1, 21]: 29%
Survival (tumour less than 1 cm long, not euthanized) [1, 22]: 86%
Tumor-take Rate [1, 22]: 29%
Survival (tumour less than 1 cm long, not euthanized) [2, 23]: 100%
Tumor-free mice [2, 23]: 100%
Survival (tumour less than 1 cm long, not euthanized) [2, 24]: 100%
Tumor-free mice [2, 24]: 100%
Survival (tumour less than 1 cm long, not euthanized) [2, 25]: 100%
Tumor-free mice [2, 25]: 100%
Survival (tumour less than 1 cm long, not euthanized) [2, 26]: 100%
Tumor-free mice [2, 26]: 90%
Survival (tumour less than 1 cm long, not euthanized) [2, 27]: 100%
Tumor-free mice [2, 27]: 90%
Survival (tumour less than 1 cm long, not euthanized) [2, 28]: 90%
Tumor-free mice [2, 28]: 90%
Survival (tumour less than 1 cm long, not euthanized) [2, 29]: 100%
Tumor-free mice [2, 29]: 100%
Survival (tumour less than 1 cm long, not euthanized) [2, 30]: 100%
Tumor-free mice [2, 30]: 90%
Survival (tumour less than 1 cm long, not euthanized) [2, 31]: 100%
Tumor-free mice [2, 31]: 80%
Survival (tumour less than 1 cm long, not euthanized) [2, 32]: 100%
Tumor-free mice [2, 32]: 50%
Survival (tumour less than 1 cm long, not euthanized) [2, 33]: 80%
Tumor-free mice [2, 33]: 70%
Survival (tumour less than 1 cm long, not euthanized) [2, 34]: 70%
Tumor-free mice [2, 34]: 70%
animals with tumors that were regressing or had regressed completely by Day 20 ([2]; low dose PDT (25 J/cm^2), adjuvant, where given, high dose (1:2.5)): 2 out of 10 animals
